Data taken from PubChem BioAssay AID248 (DTP/NCI, 2004).
Several values for one entry are separate records, joined by “and”; a condition that tells them apart may be missing. Identical values can stand only once. Inconclusive results and toxic doses are left out. No stated cut-off is given here; in the data, active means T/C of 150% or more; inactive means T/C below 125%.

Test system: L1210 leukemia ip in BDF1 mice, survival T/C
Test: NCI In Vivo Anticancer Drug Screen. Data for tumor model L1210 Leukemia (intraperitoneal) in B6D2F1 (BDF1) mice
Conditions: endpoint: mean survival time, higher = longer survival
Procedure, shortened: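 In this screen, tumor-bearing mice given compound are compared to those given vehicle, and their survival values are reported as a treated-to-control quotient.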

[1] = dose: 100.0 mg/kg/injection, schedule: Q04DX003 (ip), vehicle: saline with Tween-80
[2] = dose: 200.0 mg/kg/injection, schedule: Q04DX003 (ip), vehicle: saline with Tween-80
[3] = dose: 400.0 mg/kg/injection, schedule: Q04DX003 (ip), vehicle: saline with Tween-80
[4] = dose: 100.0 mg/kg/injection, schedule: Q04DX003 (ip), vehicle: Klucel (hydroxypropylcellulose) (HPC)
[5] = dose: 200.0 mg/kg/injection, schedule: Q04DX003 (ip), vehicle: Klucel (hydroxypropylcellulose) (HPC)

Measured: T/C

NC(=S)N/N=C/c1ccc([N+](=O)[O-])s1
inactive: dose: 12.5 mg/kg/injection, schedule: Q01DX005 (ip), vehicle: water 102 % of control | dose: 25.0 mg/kg/injection, schedule: Q01DX005 (ip), vehicle: water 98 % of control | dose: 50.0 mg/kg/injection, schedule: Q01DX005 (ip), vehicle: water 93 % of control | dose: 50.0 mg/kg/injection, schedule: Q04DX003 (ip), vehicle: saline with Tween-80 103 % of control | dose: 100.0 mg/kg/injection, schedule: Q01DX005 (ip), vehicle: water 100 % of control | [1] 104 % of control | dose: 100.0 mg/kg/injection, schedule: Q04DX003 (ip), vehicle: water 88 % of control | dose: 200.0 mg/kg/injection, schedule: Q01DX005 (ip), vehicle: water 94 % of control | [2] 100 % of control | dose: 200.0 mg/kg/injection, schedule: Q04DX003 (ip), vehicle: water 91 % of control

COc1ccc(C=NC2C(OC(C)=O)OC(COS(=O)(=O)c3ccc(C)cc3)C(OC(C)=O)C2OC(C)=O)cc1 (stereo unspecified)
inactive: [1] 101 % of control | [2] 101 % of control | [3] 93 % of control

O=C(COc1ccc(Cl)c(Cl)c1)Nc1ccc[n+](Cc2cc(Cl)ccc2S(=O)(=O)F)c1
inactive: dose: 100.0 mg/kg/injection, schedule: Q01DX001 (ip), vehicle: saline 97 % of control | dose: 200.0 mg/kg/injection, schedule: Q01DX001 (ip), vehicle: saline 105 % of control | dose: 400.0 mg/kg/injection, schedule: Q01DX001 (ip), vehicle: saline 94 % of control

Cc1ccc(O)cc1Cl
inactive: dose: 100.0 mg/kg/injection, schedule: Q01DX009 (ip), vehicle: saline 104 % of control | dose: 100.0 mg/kg/injection, schedule: Q04DX003 (ip), vehicle: saline 95 % of control | dose: 200.0 mg/kg/injection, schedule: Q01DX009 (ip), vehicle: saline 101 % of control | dose: 200.0 mg/kg/injection, schedule: Q04DX003 (ip), vehicle: saline 104 % of control | dose: 400.0 mg/kg/injection, schedule: Q01DX009 (ip), vehicle: saline 95 % of control | dose: 400.0 mg/kg/injection, schedule: Q04DX003 (ip), vehicle: saline 96 % of control

CC[P+](CC)(CC)CCCCI
inactive: dose: 12.0 mg/kg/injection, schedule: Q01DX009 (ip), vehicle: saline 94 % of control | dose: 25.0 mg/kg/injection, schedule: Q01DX009 (ip), vehicle: saline 101 % of control | dose: 25.0 mg/kg/injection, schedule: Q04DX003 (ip), vehicle: saline 105 % of control | dose: 50.0 mg/kg/injection, schedule: Q01DX009 (ip), vehicle: saline 101 % of control and 91 % of control | dose: 50.0 mg/kg/injection, schedule: Q04DX003 (ip), vehicle: saline 114 % of control

COc1ccc2c(c1OC)CCN1C3=C(CC4(CC3)OCCO4)C(=O)CC21 (stereo unspecified)
inactive: [1] 97 % of control | [2] 88 % of control | [3] 101 % of control

COc1cc(C=Nc2cc(Br)c(O)c(Br)c2)ccc1N(CCCCl)CCCCl
inactive: [4] 97 % of control | [5] 100 % of control | dose: 400.0 mg/kg/injection, schedule: Q04DX003 (ip), vehicle: Klucel (hydroxypropylcellulose) (HPC) 102 % of control

CCOC(=O)C1=C(C#N)C(C(=O)OCC)c2ncccc21 (stereo unspecified)
inactive: dose: 50.0 mg/kg/injection, schedule: Q01DX005 (ip), vehicle: saline 97 % of control | dose: 100.0 mg/kg/injection, schedule: Q01DX005 (ip), vehicle: saline 88 % of control | dose: 200.0 mg/kg/injection, schedule: Q01DX005 (ip), vehicle: saline 87 % of control | dose: 400.0 mg/kg/injection, schedule: Q01DX005 (ip), vehicle: saline 95 % of control

COc1ccc(/C=N/N=C(N)N)cc1
inactive: dose: 15.0 mg/kg/injection, schedule: Q01DX Z (ip), vehicle: saline 103 % of control | dose: 30.0 mg/kg/injection, schedule: Q01DX Z (ip), vehicle: saline 100 % of control | dose: 30.0 mg/kg/injection, schedule: Q01DX Z (oral), vehicle: other 93 % of control | dose: 60.0 mg/kg/injection, schedule: Q01DX Z (ip), vehicle: saline 95 % of control | dose: 60.0 mg/kg/injection, schedule: Q01DX Z (oral), vehicle: other 100 % of control | dose: 120.0 mg/kg/injection, schedule: Q01DX Z (oral), vehicle: other 98 % of control

O=Nc1ccc(O)c(=O)cc1
inactive: dose: 1.0 mg/kg/injection, schedule: Q01DX009 (ip), vehicle: saline 90 % of control | dose: 1.0 mg/kg/injection, schedule: Q04DX003 (ip), vehicle: saline 100 % of control | dose: 2.0 mg/kg/injection, schedule: Q01DX009 (ip), vehicle: saline 90 % of control | dose: 2.0 mg/kg/injection, schedule: Q04DX003 (ip), vehicle: saline 97 % of control | dose: 4.0 mg/kg/injection, schedule: Q01DX009 (ip), vehicle: saline 97 % of control | dose: 4.0 mg/kg/injection, schedule: Q04DX003 (ip), vehicle: saline 109 % of control

N#CSCc1ccccc1Cl
inactive: dose: 6.25 mg/kg/injection, schedule: Q04DX003 (ip), vehicle: Klucel (hydroxypropylcellulose) (HPC) 104 % of control | dose: 12.5 mg/kg/injection, schedule: Q04DX003 (ip), vehicle: Klucel (hydroxypropylcellulose) (HPC) 104 % of control | dose: 25.0 mg/kg/injection, schedule: Q04DX003 (ip), vehicle: Klucel (hydroxypropylcellulose) (HPC) 93 % of control | dose: 50.0 mg/kg/injection, schedule: Q04DX003 (ip), vehicle: Klucel (hydroxypropylcellulose) (HPC) 96 % of control

c1ccc2c[n+](CCc3c[nH]c4ccccc34)ccc2c1
inactive: dose: 100.0 mg/kg/injection, schedule: Q04DX002 (ip), vehicle: Klucel (hydroxypropylcellulose) (HPC) 100 % of control | [4] 96 % of control | [5] 104 % of control

Cc1ccc(NC(=S)NC(=O)c2cccc([N+](=O)[O-])c2)cc1C
inactive: dose: 50.0 mg/kg/injection, schedule: Q01DX009 (ip), vehicle: saline with Tween-80 97 % of control and 112 % of control | dose: 100.0 mg/kg/injection, schedule: Q01DX001 (ip), vehicle: saline with Tween-80 92 % of control | dose: 100.0 mg/kg/injection, schedule: Q04DX002 (ip), vehicle: alcohol 93 % of control and 103 % of control | [1] 95 % of control | dose: 200.0 mg/kg/injection, schedule: Q01DX001 (ip), vehicle: saline with Tween-80 101 % of control | dose: 200.0 mg/kg/injection, schedule: Q04DX002 (ip), vehicle: alcohol 93 % of control and 103 % of control | [2] 94 % of control | dose: 400.0 mg/kg/injection, schedule: Q01DX001 (ip), vehicle: saline with Tween-80 98 % of control | dose: 400.0 mg/kg/injection, schedule: Q04DX002 (ip), vehicle: alcohol 93 % of control and 98 % of control | [3] 106 % of control

CC1C(C(=O)c2ccc(-c3ccccc3)cc2)N1C(C)(C)C (stereo unspecified)
inactive: dose: 100.0 mg/kg/injection, schedule: Q01DX001 (ip), vehicle: Klucel (hydroxypropylcellulose) (HPC) 87 % of control | dose: 200.0 mg/kg/injection, schedule: Q01DX001 (ip), vehicle: Klucel (hydroxypropylcellulose) (HPC) 93 % of control | dose: 400.0 mg/kg/injection, schedule: Q01DX001 (ip), vehicle: Klucel (hydroxypropylcellulose) (HPC) 94 % of control

Cc1nc2[nH]c(=O)[nH]c(=O)c2nc1C
inactive: dose: 16.0 mg/kg/injection, schedule: Q01DX Z (ip), vehicle: methylcellulose (MC) 100 % of control | dose: 31.0 mg/kg/injection, schedule: Q01DX Z (ip), vehicle: methylcellulose (MC) 95 % of control | dose: 62.0 mg/kg/injection, schedule: Q01DX Z (ip), vehicle: methylcellulose (MC) 87 % of control | dose: 100.0 mg/kg/injection, schedule: Q01DX001 (ip), vehicle: other 104 % of control | dose: 100.0 mg/kg/injection, schedule: Q04DX003 (ip), vehicle: other 96 % of control | dose: 125.0 mg/kg/injection, schedule: Q01DX Z (ip), vehicle: methylcellulose (MC) 92 % of control and 93 % of control | dose: 200.0 mg/kg/injection, schedule: Q01DX001 (ip), vehicle: other 107 % of control | dose: 200.0 mg/kg/injection, schedule: Q04DX003 (ip), vehicle: other 104 % of control | dose: 250.0 mg/kg/injection, schedule: Q01DX Z (ip), vehicle: methylcellulose (MC) 89 % of control | dose: 400.0 mg/kg/injection, schedule: Q01DX001 (ip), vehicle: other 102 % of control | dose: 400.0 mg/kg/injection, schedule: Q04DX003 (ip), vehicle: other 96 % of control | dose: 500.0 mg/kg/injection, schedule: Q01DX Z (ip), vehicle: methylcellulose (MC) 89 % of control
